Reference: patent US12606572B2, “Substituted heterocycles and uses thereof” (Kumquat Biosciences Inc., priority 2023, dated 2026)
pIC50: −log10 of the molar value.

The molecules below were run against T1, KRAS G12S (Homo sapiens, UniProt P01116, G12S) (assay: HTRF assay, interaction of GST-tagged K-Ras with His-tagged hSOS1 (KRAS G12S)). Conditions: <500 nM, read-out: Inhibition of KRAS G12S (IC50).
T1 construct: made in house; host or cells: E. coli BL21 (DE3)
Assay type: biochemical
Excerpt: (§1) This assay can be also used to assess a selective inhibition or reduction of signaling output of a mutant Ras protein relative to a wildtype, or relative to a different mutant Ras protein. For example, the equilibrium interaction of wildtype KRAS or K-Ras mutant (e.g., wildtype or a mutant thereof) with SOS1 (e.g., hSOS1) can be assessed as a proxy or an indication for the ability of a subject compound to bind and inhibit Ras protein. The HTRF assay detects from (i) a fluorescence resonance energy transfer (FRET) donor (e.g., antiGST-Europium) that is bound to GST-tagged K-Ras mutant to (ii) a FRET acceptor (e.g., anti-6His-XL665) bound to a His-tagged hSOS1.
(§2) The assay buffer can contain ˜5 mM HEPES pH 7.4, ˜150 mM NaCl, ˜1 mM DTT, 0.05% BSA and 0.0025% (v/v) Igepal. A Ras working solution is prepared in an assay buffer containing typically a suitable amount of the protein construct (e.g., GST-tagged K-Ras mutant) and the FRET donor (e.g., antiGST-Eu(K) from Cisbio, France). A SOS1 working solution is prepared in an assay buffer containing suitable amount of the protein construct (e.g., His-hSOS1) and the FRET acceptor (e.g., anti-6His-XL665 from Cisbio, France). A suitable amount of the protein construct will depend on the range of activity or range of IC50 values being detected or under investigation. For detecting an IC50 within a range of 500 nM, the protein constructs of the same range of molarity can be utilized.
(§3) A fixed volume of DMSO with or without test compound is transferred into a 384-well plate. Ras working solution is added to all wells of the test plate. SOS1 working solution is added to all wells except for those that are subsequently filled with inhibitor control solution. Upon incubation for about 10 minutes or longer, the fluorescence is measured with a M1000Pro plate reader (Tecan) using HTRF detection (excitation 337 nm, emission 1: 620 nm, emission 2: 665 nm). Compounds are tested in duplicate at different concentrations (for example, 10 μM, 2.5 μM, 0.63 μM, 0.16 μM, 0.04 μM, 0.01 μM test compound). The ratiometric data (i.e., emission 2 divided by emission 1) is used to calculate IC50 values against Ras using GraphPad Prism (GraphPad software). Signaling output measured in terms of IC50 values can be obtained and a ratio of IC50 against one mutant relative to another mutant can be calculated. For instance, a selective reduction of K-Ras G12S signaling output can be evidenced by a ratio greater than one. In particular, a selective reduction of K-Ras G12S signaling relative to K-Ras WT signaling is evidenced if the ratio of IC50 (against K-Ras WT) to IC50 (against K-Ras G12S) is greater than 1.

T1 sequence (P01116 1-188 isoform P01116-2 G12S): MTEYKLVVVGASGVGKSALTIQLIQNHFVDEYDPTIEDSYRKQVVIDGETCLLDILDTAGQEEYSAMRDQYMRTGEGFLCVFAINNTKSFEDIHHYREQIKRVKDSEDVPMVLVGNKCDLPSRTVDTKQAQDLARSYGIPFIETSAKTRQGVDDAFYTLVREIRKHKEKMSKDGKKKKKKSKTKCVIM

| pIC50 | SMILES |
| --- | --- |
| > 6.30 | C[C@H]1COc2c(Cl)c(-c3ccc(F)c4sc(N)c(C#N)c34)c(F)c3nc(OC[C@@]45CCCN4C[C@H](F)C5)nc(c23)N1C[C@@H]1CN(C(=O)n2ccnc2)[C@@H]1C1(C)CC1 (single isomer, unassigned) [Compound 421] |
| > 6.30 | C[C@H](O)[C@H]1COc2c(Cl)c(-c3ccc(F)c4sc(N)c(C#N)c34)c(F)c3nc(OC[C@@]45CCCN4C[C@H](F)C5)nc(c23)N1C1CC(CN(C)C(=O)n2ccnc2)C1 (stereo partly drawn) [Compound 401, N-((3-((5R)-9-(2-amino-3-cyano-7-fluorobenzo[b]thiophen-4-yl)-8-chloro-10-fluoro-2-(((2R,7aS)-2-fluorotetrahydro-1H-pyrrolizin-7a(5H)-yl)methoxy)-5-((S)-1-hydroxyethyl)-5,6-dihydro-4H-[1,4]oxazepino[5,6,7-de]quinazolin-4-yl)cyclobutyl)methyl)-N-methyl-1H-imidazole-1-carboxamide] |
| > 6.30 | N#Cc1cn(C(=O)N2CC(CN3CCOc4c(Cl)c(-c5ccc(F)c6sc(N)c(C#N)c56)c(F)c5nc(OC[C@@]67CCCN6C[C@H](F)C7)nc3c45)C2)cn1 [Compound 436, 1-(3-((9-(2-amino-3-cyano-7-fluorobenzo[b]thiophen-4-yl)-8-chloro-10-fluoro-2-(((2R,7aS)-2-fluorotetrahydro-1H-pyrrolizin-7a(5H)-yl)methoxy)-5,6-dihydro-4H-[1,4]oxazepino [5,6,7-de]quinazolin-4-yl)methyl)azetidine-1-carbonyl)-1H-imidazole-4-carbonitrile] |
| > 6.30 | CC(CN(C)C(=O)n1ccnc1)N1c2nc(OC[C@@]34CCCN3C[C@H](F)C4)nc3c(F)c(-c4ccc(F)c5sc(N)c(C#N)c45)c(Cl)c(c23)OC[C@@H]1[C@H](C)O (stereo partly drawn) [Compound 451, N-(2-((5R)-9-(2-amino-3-cyano-7-fluorobenzo[b]thiophen-4-yl)-8-chloro-10-fluoro-2-(((2R,7aS)-2-fluorotetrahydro-1H-pyrrolizin-7a(5H)-yl)methoxy)-5-((S)-1-hydroxyethyl)-5,6-dihydro-4H-[1,4]oxazepino [5,6,7-de]quinazolin-4-yl)propyl)-N-methyl-1H-imidazole-1-carboxamide] |

| SMILES | pIC50 |
| --- | --- |
| CN1[C@H](C2CC2)[C@@H]1C(=O)N1CC(CN2CCOc3c(Cl)c(-c4ccc(F)c5sc(N)c(C#N)c45)c(F)c4nc(OC[C@@]56CCCN5C[C@H](F)C6)nc2c34)C1 (stereo partly drawn) [Compound 440, 2-amino-4-(8-chloro-4-((1-((2R,3R)-3-cyclopropyl-1-methylaziridine-2-carbonyl)azetidin-3-yl)methyl)-10-fluoro-2-(((2R,7aS)-2-fluorotetrahydro-1H-pyrrolizin-7a (5H)-yl)methoxy)-5,6-dihydro-4H-[1,4]oxazepino[5,6,7-de]quinazolin-9-yl)-7-fluorobenzo[b]thiophene-3-carbonitrile] | > 6.30 |

These molecules were tested against T2, KRAS WT (Homo sapiens, UniProt P01116) (assay: HTRF assay, interaction of GST-tagged K-Ras with His-tagged hSOS1 (KRAS wildtype)). Conditions: <500 nM, read-out: Inhibition of KRAS WT (IC50).
T2 construct: made in house; host or cells: E. coli BL21 (DE3)
T2 sequence (P01116 1-188 isoform P01116-2): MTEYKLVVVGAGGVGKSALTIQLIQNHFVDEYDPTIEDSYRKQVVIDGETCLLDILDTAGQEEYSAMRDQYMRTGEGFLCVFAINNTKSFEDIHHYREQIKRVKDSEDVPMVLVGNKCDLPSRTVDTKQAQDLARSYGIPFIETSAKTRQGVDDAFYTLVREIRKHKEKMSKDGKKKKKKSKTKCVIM
Assay type: biochemical
Excerpt: as §1, §2, §3

| pIC50 | SMILES |
| --- | --- |
| > 6.30 | C[C@H]1COc2c(Cl)c(-c3ccc(F)c4sc(N)c(C#N)c34)c(F)c3nc(OC[C@@]45CCCN4C[C@H](F)C5)nc(c23)N1C[C@@H]1CN(C(=O)n2ccnc2)[C@@H]1C1(C)CC1 (single isomer, unassigned) [Compound 473] |
| > 6.30 | CC(CN(C)C(=O)n1ccnc1)N1c2nc(OC[C@@]34CCCN3C[C@H](F)C4)nc3c(F)c(-c4ccc(F)c5sc(N)c(C#N)c45)c(Cl)c(c23)OC[C@@H]1[C@H](C)O (stereo partly drawn) [Compound 467, N-(2-((5R)-9-(2-amino-3-cyano-7-fluorobenzo[b]thiophen-4-yl)-8-chloro-10-fluoro-2-(((2R,7aS)-2-fluorotetrahydro-1H-pyrrolizin-7a(5H)-yl)methoxy)-5-((S)-1-hydroxyethyl)-5,6-dihydro-4H-[1,4]oxazepino[5,6,7-de]quinazolin-4-yl)propyl)-N-methyl-1H-imidazole-1-carboxamide] |
| > 6.30 | N#Cc1cn(C(=O)N2CC(CN3CCOc4c(Cl)c(-c5ccc(F)c6sc(N)c(C#N)c56)c(F)c5nc(OC[C@@]67CCCN6C[C@H](F)C7)nc3c45)C2)cn1 [Compound 478, 1-(3-((9-(2-amino-3-cyano-7-fluorobenzo[b]thiophen-4-yl)-8-chloro-10-fluoro-2-(((2R,7aS)-2-fluorotetrahydro-1H-pyrrolizin-7a(5H)-yl)methoxy)-5,6-dihydro-4H-[1,4]oxazepino[5,6,7-de]quinazolin-4-yl)methyl)azetidine-1-carbonyl)-1H-imidazole-4-carbonitrile] |
| > 6.30 | C[C@H](O)[C@H]1COc2c(Cl)c(-c3ccc(F)c4sc(N)c(C#N)c34)c(F)c3nc(OC[C@@]45CCCN4C[C@H](F)C5)nc(c23)N1C1CC(CN(C)C(=O)n2ccnc2)C1 (stereo partly drawn) [Compound 482, N-((3-((5R)-9-(2-amino-3-cyano-7-fluorobenzo[b]thiophen-4-yl)-8-chloro-10-fluoro-2-(((2R,7aS)-2-fluorotetrahydro-1H-pyrrolizin-7a(5H)-yl)methoxy)-5-((S)-1-hydroxyethyl)-5,6-dihydro-4H-[1,4]oxazepino [5,6,7-de]quinazolin-4-yl)cyclobutyl)methyl)-N-methyl-1H-imidazole-1-carboxamide] |
| > 6.30 | CC1([C@@H]2[C@H](CN3CCOc4c(Cl)c(-c5ccc(F)c6sc(N)c(C#N)c56)c(F)c5nc(OC[C@@]67CCCN6C[C@H](F)C7)nc3c45)CN2C(=O)n2ccnc2)CC1 [Compound 485, 4-(4-(((2S,3R)-1-(1H-imidazole-1-carbonyl)-2-(1-methylcyclopropyl)azetidin-3-yl)methyl)-8-chloro-10-fluoro-2-(((2R,7aS)-2-fluorotetrahydro-1H-pyrrolizin-7a(5H)-yl)methoxy)-5,6-dihydro-4H-[1,4]oxazepino [5,6,7-de]quinazolin-9-yl)-2-amino-7-fluorobenzo[b] thiophene-3-carbonitrile] |

Continued, molecule first:

| SMILES | pIC50 |
| --- | --- |
| Cc1cn(C(=O)N2CC[C@@H](N3C[C@H](C)Oc4cc(-c5cc(N)c(F)c(C)c5C(F)(F)F)c(F)c5nc(OC[C@@]67CCCN6C[C@H](F)C7)nc3c45)[C@H]2C)c(C)n1 [Compound 415, ((2R,3R)-3-((S)-9-(5-amino-4-fluoro-3-methyl-2-(trifluoromethyl)phenyl)-10-fluoro-2-(((2R,7aS)-2-fluorotetrahydro-1H-pyrrolizin-7a(5H)-yl)methoxy)-6-methyl-5,6-dihydro-4H-[1,4]oxazepino [5,6,7-de]quinazolin-4-yl)-2-methylpyrrolidin-1-yl)(2,4-dimethyl-1H-imidazol-1-yl)methanone] | > 6.30 |
| CN1[C@H](C2CC2)[C@@H]1C(=O)N1CC(CN2CCOc3c(Cl)c(-c4ccc(F)c5sc(N)c(C#N)c45)c(F)c4nc(OC[C@@]56CCCN5C[C@H](F)C6)nc2c34)C1 (stereo partly drawn) [Compound 460, 2-amino-4-(8-chloro-4-((1-((2R,3R)-3-cyclopropyl-1-methylaziridine-2-carbonyl)azetidin-3-yl)methyl)-10-fluoro-2-(((2R,7aS)-2-fluorotetrahydro-1H-pyrrolizin-7a(5H)-yl)methoxy)-5,6-dihydro-4H-[1,4]oxazepino [5,6,7-de]quinazolin-9-yl)-7-fluorobenzo[b]thiophene-3-carbonitrile] | > 6.30 |
